Key:
[1] = in vivo, po; cited from earlier work
[2] = dog, in vivo, po
Description: Blood samples were taken at 0.25(tablet only), 0.5, 1, 2, 4, 6, 8, 10, 12 and 24 hours postmedication. The plasma concentration of (5α,17α)-1'-(methylsulfonyl)-1'-H-pregn-20-yno[3,2-c]pyrazol-17-ol was measured from each sample. The data were analyzed to determine the mean maximum concentration of (5α,17α)-1'-(methylsulfonyl)-1'-H-pregn-20-yno[3,2-c]pyrazol-17-ol reached (mean Cmax) and the mean area under the (5α,17α)-1'-(methylsulfonyl)-1'H-pregn-20-yno[3,2-c]pyrazol-17-ol concentration-time curve for the twenty-four hour period (mean AUC0-24).

Mean Cmax [2]	Mean AUC0-24 ([2]; 24 h)	Compound	human bioavailability compared with conventional starch-lactose-talc-magnesium stearate dry powder capsule formulations [1]
		C#C[C@]1(O)CC[C@H]2[C@@H]3CCC4=Cc5oncc5C[C@]4(C)[C@H]3CC[C@@]21C [Compound A, 17a-pregna-2,4-diene-20-yno[2,3-d]isoxazol-17-ol]	Improved human bioavailability
0.23 (0.11) μg./ml.	1.70 (1.64) μg.-hr./ml.	(5α,17α)-1'-(methylsulfonyl)-1'H-pregn-20-yno[3,2-c]pyrazol-17-ol [Comparative Example]	
